One series concerns the target T1, cyclooxygenase (CO) (Bos taurus, UniProt O62664).
T1 construct: endogenous in cells
T1 sequence (O62664 25-600): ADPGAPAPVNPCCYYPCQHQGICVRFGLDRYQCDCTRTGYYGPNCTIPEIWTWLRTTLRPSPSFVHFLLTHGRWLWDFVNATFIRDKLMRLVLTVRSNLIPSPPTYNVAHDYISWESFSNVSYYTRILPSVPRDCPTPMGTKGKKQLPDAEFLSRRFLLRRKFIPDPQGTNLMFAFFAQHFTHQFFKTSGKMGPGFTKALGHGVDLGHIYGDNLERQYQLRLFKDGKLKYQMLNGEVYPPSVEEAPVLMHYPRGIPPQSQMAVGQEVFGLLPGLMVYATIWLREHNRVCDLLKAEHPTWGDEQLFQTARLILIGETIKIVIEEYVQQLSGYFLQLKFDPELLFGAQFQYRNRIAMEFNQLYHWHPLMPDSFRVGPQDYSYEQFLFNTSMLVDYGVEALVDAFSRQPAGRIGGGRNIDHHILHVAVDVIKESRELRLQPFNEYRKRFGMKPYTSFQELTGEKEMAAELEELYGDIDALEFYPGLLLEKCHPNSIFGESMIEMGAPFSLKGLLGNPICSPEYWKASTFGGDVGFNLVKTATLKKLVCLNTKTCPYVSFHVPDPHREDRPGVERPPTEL
The experiment in a line: Inhibition of the enzyme cyclooxygenase (CO). It is filed as biochemical. As to conditions: second figure of cell 'LO/CO'; decimal comma; concentration unit inferred; read-out: 7) IC50 CO. The text has this:
(§1) 7) IC50 /LO/CO: Inhibition of the enzyme cyclooxygenase (CO) and 5-lipoxygenase (LO), Dannhardt et al., J. Pharm. Pharmacol. 1992, 44:419-424.

For the next series, the target named is T2, 5-lipoxygenase (LO) (Bos taurus, UniProt F1MQ78).
T2 construct: endogenous in cells
T2 sequence (F1MQ78 1-674): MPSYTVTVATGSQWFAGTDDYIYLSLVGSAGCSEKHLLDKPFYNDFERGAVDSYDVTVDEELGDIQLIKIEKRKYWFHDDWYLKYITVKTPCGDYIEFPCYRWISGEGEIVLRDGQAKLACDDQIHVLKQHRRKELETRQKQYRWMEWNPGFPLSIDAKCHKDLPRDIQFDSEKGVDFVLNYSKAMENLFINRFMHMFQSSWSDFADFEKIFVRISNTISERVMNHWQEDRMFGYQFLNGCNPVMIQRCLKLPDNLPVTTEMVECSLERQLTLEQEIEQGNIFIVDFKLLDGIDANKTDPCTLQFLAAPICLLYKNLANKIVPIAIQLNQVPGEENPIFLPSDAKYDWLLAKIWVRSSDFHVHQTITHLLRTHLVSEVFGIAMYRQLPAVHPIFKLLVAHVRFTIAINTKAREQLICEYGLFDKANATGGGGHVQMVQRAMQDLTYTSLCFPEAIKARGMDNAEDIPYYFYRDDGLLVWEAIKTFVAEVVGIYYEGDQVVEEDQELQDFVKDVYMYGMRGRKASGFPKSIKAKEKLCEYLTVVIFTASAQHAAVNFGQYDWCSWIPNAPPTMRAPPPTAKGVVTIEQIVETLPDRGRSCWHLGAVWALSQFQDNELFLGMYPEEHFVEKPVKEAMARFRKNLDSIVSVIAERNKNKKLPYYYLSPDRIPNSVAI
The experiment in a line: Inhibition of the enzyme 5-lipoxygenase (LO). It is filed as biochemical. The note with it: first figure of cell 'LO/CO'; decimal comma; concentration unit inferred; read-out: 7) IC50 LO.
From the text: as §1

The source of these data is patent US5942535A, “[a]-Annelated pyrrole derivatives and pharmaceutical use thereof” (Merckle GmbH, priority 1994, dated 1999).

The molecule `CC1(C)Cc2c(-c3ccccc3)c(-c3ccc(Cl)cc3)c(CC(=O)O)n2C1` [6-(4-chlorophenyl)-2,2-dimethyl-7-phenyl-2,3-dihydro-1H-pyrrolizin-5-yl acetic acid] registered a degraded at 24 h in “physchem” (aqueous solution) of approximately 2%. Besides, in “physchem” (chloroform), the half-life was approximately 1 h.

With `CC1(C)Cc2c(-c3ccccc3)c(-c3ccc(Cl)cc3)c(CC(=O)NS(C)(=O)=O)n2C1` [Example 4], the IC50 worked out at 150 nM on cyclooxygenase (CO) and 230 nM on 5-lipoxygenase (LO).

The half-life is how long it takes for the measured level to halve. A word on the IC50: it is the concentration that gives 50% inhibition.
